From patent US20260345619A1 (Principia Biopharma Inc., priority 2023, published 2026)

Assay: Pre-bronchodilator FEV1 and percent predicted FEV1 by spirometry, change from baseline
Format: in vivo, human
Conditions: 400 mg BID
Description: Spirometry is a standard test to measure patients' lung function.
The primary endpoint was the proportion of patients with LOAC. The key secondary endpoint for the study was change in pre-bronchodilator FEV1 from baseline at EOT.
Reversibility is defined as an increase of the absolute FEV1 after administration of bronchodilator and is measured by spirometry as postbronchodilator increase in FEV1 in percent of the prebronchodilator FEV1. After spirometry for measuring prebronchodilator FEV1, participants were to receive 2-4 puffs of albuterol/salbutamol or levalbuterol/levosalbutamol from a primed MDI. The postbronchodilator spirometry may have been repeated several times within 30 minutes after administration of bronchodilator. Alternatively, and only if it was consistent with usual office practice (to be documented), reversibility may have been performed using inhalation of nebulized albuterol/salbutamol or levalbuterol/levosalbutamol.
Secondary endpoints included pre-bronchodilator FEV1 change from baseline at EOT, ACQ-5 score change from baseline, and AQLQ score change from baseline. Other secondary and exploratory endpoints are described in Table 2.

[1] = Week 12, baseline weight ≥90 kg
[2] = Week 12, smoking history Former
[3] = EOT (Week 12), all others, mITT
[4] = Week 2, before LOAC and OCS use, as observed, mITT
[5] = Week 2, observed/LOCF imputed, mITT
[6] = Week 2, on-site conventional spirometry as observed, mITT
[7] = Week 4, before LOAC and OCS use, as observed, mITT
[8] = Week 4, observed/LOCF imputed, mITT
[9] = Week 4, on-site conventional spirometry as observed, mITT
[10] = Week 6, before LOAC and OCS use, as observed, mITT
[11] = Week 6, observed/LOCF imputed, mITT
[12] = Week 6, on-site conventional spirometry as observed, mITT
[13] = Week 8, before LOAC and OCS use, as observed, mITT
[14] = Week 8, observed/LOCF imputed, mITT
[15] = Week 8, on-site conventional spirometry as observed, mITT
[16] = Week 10, before LOAC and OCS use, as observed, mITT
[17] = Week 10, observed/LOCF imputed, mITT
[18] = Week 10, on-site conventional spirometry as observed, mITT
[19] = Week 12 (EOT), MMRM supplementary analysis, mITT
[20] = Week 12, before LOAC and OCS use, as observed, mITT

## CC(C)(C=C(C#N)C(=O)N1CCC[C@@H](n2nc(-c3ccc(Oc4ccccc4)cc3F)c3c(N)ncnc32)C1)N1CCN(C2COC2)CC1 (mixture of isomers) [rilzabrutinib, (R)-2-[3-[4-amino-3-(2-fluoro-4-phenoxy-phenyl)pyrazolo[3,4-d]pyrimidin-1-yl]piperidine-1-carbonyl]-4-methyl-4-[4-(oxetan-3-yl)piperazin-1-yl]pent-2-enenitrile]
[1]
  Pre-bronchodilator FEV1 change from baseline, LS Mean: -0.25 L
  Pre-bronchodilator FEV1 change from baseline, LS Mean Diff vs. placebo: -0.37 L
  Pre-bronchodilator FEV1 change from baseline, Mean: -0.17 L
Week 12, female
  Pre-bronchodilator FEV1 change from baseline, LS Mean: 0.00 L
  Pre-bronchodilator FEV1 change from baseline, LS Mean Diff vs. placebo: 0.04 L
  Pre-bronchodilator FEV1 change from baseline, Mean: -0.01 L
Week 12, male
  Pre-bronchodilator FEV1 change from baseline, LS Mean: -0.23 L
  Pre-bronchodilator FEV1 change from baseline, LS Mean Diff vs. placebo: -0.16 L
  Pre-bronchodilator FEV1 change from baseline, Mean: -0.08 L
[2]
  Pre-bronchodilator FEV1 change from baseline, LS Mean: -0.57 L
  Pre-bronchodilator FEV1 change from baseline, LS Mean Diff vs. placebo: -0.21 L
  Pre-bronchodilator FEV1 change from baseline, Mean: -0.36 L
Week 12, smoking history Never
  Pre-bronchodilator FEV1 change from baseline, LS Mean: -0.05 L
  Pre-bronchodilator FEV1 change from baseline, LS Mean Diff vs. placebo: 0.03 L
  Pre-bronchodilator FEV1 change from baseline, Mean: 0.02 L
95% CI −0.17, 0.19, p=0.9466
  Difference vs. placebo, LS mean change in pre-bronchodilator FEV1 (L) at Week 12: 0.01 L
[3]
  Change from baseline in pre-bronchodilator FEV1, LS Mean (SE): -0.05 L
  Change from baseline in pre-bronchodilator FEV1, LS Mean Diff vs. placebo (95% CI): 0.03 L
EOT (Week 12), all others, mITT, n=22
  Change from baseline in pre-bronchodilator FEV1, Mean (SD): -0.02 L
EOT (Week 12), low EOS (<0.15) and low FeNO (<25), mITT, n=3
  Change from baseline in pre-bronchodilator FEV1, Mean (SD): -0.17 L
N=32, mITT
  LS Mean change from baseline in pre-bronchodilator FEV1 (L) at Week 12: −0.07 (0.08) L
[4]
  Pre-bronchodilator FEV1, mean: 2.20 L
  Pre-bronchodilator FEV1, median: 2.08 L
  Pre-bronchodilator FEV1 change from baseline, Mean: 0.08 L
  Pre-bronchodilator FEV1 change from baseline, median: 0.04 L
  Pre-bronchodilator FEV1 percent change from baseline, mean: 4.47%
  Pre-bronchodilator FEV1 percent change from baseline, median: 2.02%
[5]
  Pre-bronchodilator FEV1, mean: 2.20 L
  Pre-bronchodilator FEV1, median: 2.08 L
  Pre-bronchodilator FEV1 change from baseline, LS Mean: 0.06 L
  Pre-bronchodilator FEV1 change from baseline, LS Mean Diff vs. placebo: 0.00 L
  Pre-bronchodilator FEV1 change from baseline, Mean: 0.08 L
  Pre-bronchodilator FEV1 change from baseline, median: 0.04 L
[6]
  Pre-bronchodilator FEV1, mean: 2.20 L
  Pre-bronchodilator FEV1, median: 2.08 L
  Pre-bronchodilator FEV1 change from baseline, Mean: 0.08 L
  Pre-bronchodilator FEV1 change from baseline, median: 0.04 L
  Pre-bronchodilator FEV1 percent change from baseline, mean: 4.47%
  Pre-bronchodilator FEV1 percent change from baseline, median: 2.02%
[7]
  Pre-bronchodilator FEV1, mean: 2.05 L
  Pre-bronchodilator FEV1, median: 1.96 L
  Pre-bronchodilator FEV1 change from baseline, Mean: 0.07 L
  Pre-bronchodilator FEV1 change from baseline, median: 0.02 L
  Pre-bronchodilator FEV1 percent change from baseline, mean: 3.72%
  Pre-bronchodilator FEV1 percent change from baseline, median: 0.55%
[8]
  Pre-bronchodilator FEV1, mean: 2.07 L
  Pre-bronchodilator FEV1, median: 1.96 L
  Pre-bronchodilator FEV1 change from baseline, LS Mean: 0.08 L
  Pre-bronchodilator FEV1 change from baseline, LS Mean Diff vs. placebo: -0.01 L
  Pre-bronchodilator FEV1 change from baseline, Mean: 0.07 L
  Pre-bronchodilator FEV1 change from baseline, median: 0.02 L
[9]
  Pre-bronchodilator FEV1, mean: 2.05 L
  Pre-bronchodilator FEV1, median: 1.96 L
  Pre-bronchodilator FEV1 change from baseline, Mean: 0.07 L
  Pre-bronchodilator FEV1 change from baseline, median: 0.02 L
  Pre-bronchodilator FEV1 percent change from baseline, mean: 3.72%
  Pre-bronchodilator FEV1 percent change from baseline, median: 0.55%
[10]
  Pre-bronchodilator FEV1, mean: 2.24 L
  Pre-bronchodilator FEV1, median: 2.01 L
  Pre-bronchodilator FEV1 change from baseline, Mean: 0.09 L
  Pre-bronchodilator FEV1 change from baseline, median: 0.07 L
  Pre-bronchodilator FEV1 percent change from baseline, mean: 3.99%
  Pre-bronchodilator FEV1 percent change from baseline, median: 3.66%
[11]
  Pre-bronchodilator FEV1, mean: 2.24 L
  Pre-bronchodilator FEV1, median: 2.01 L
  Pre-bronchodilator FEV1 change from baseline, LS Mean: -0.03 L
  Pre-bronchodilator FEV1 change from baseline, LS Mean Diff vs. placebo: -0.03 L
  Pre-bronchodilator FEV1 change from baseline, Mean: 0.09 L
  Pre-bronchodilator FEV1 change from baseline, median: 0.07 L
[12]
  Pre-bronchodilator FEV1, mean: 2.24 L
  Pre-bronchodilator FEV1, median: 2.06 L
  Pre-bronchodilator FEV1 change from baseline, Mean: 0.10 L
  Pre-bronchodilator FEV1 change from baseline, median: 0.07 L
  Pre-bronchodilator FEV1 percent change from baseline, mean: 4.61%
  Pre-bronchodilator FEV1 percent change from baseline, median: 5.14%
[13]
  Pre-bronchodilator FEV1, mean: 2.10 L
  Pre-bronchodilator FEV1, median: 1.83 L
  Pre-bronchodilator FEV1 change from baseline, Mean: 0.08 L
  Pre-bronchodilator FEV1 change from baseline, median: 0.11 L
  Pre-bronchodilator FEV1 percent change from baseline, mean: 3.28%
  Pre-bronchodilator FEV1 percent change from baseline, median: 3.73%
[14]
  Pre-bronchodilator FEV1, mean: 2.09 L
  Pre-bronchodilator FEV1, median: 1.83 L
  Pre-bronchodilator FEV1 change from baseline, LS Mean: -0.00 L
  Pre-bronchodilator FEV1 change from baseline, LS Mean Diff vs. placebo: 0.02 L
  Pre-bronchodilator FEV1 change from baseline, Mean: 0.04 L
  Pre-bronchodilator FEV1 change from baseline, median: 0.05 L
[15]
  Pre-bronchodilator FEV1, mean: 2.08 L
  Pre-bronchodilator FEV1, median: 1.86 L
  Pre-bronchodilator FEV1 change from baseline, Mean: 0.08 L
  Pre-bronchodilator FEV1 change from baseline, median: 0.09 L
  Pre-bronchodilator FEV1 percent change from baseline, mean: 3.30%
  Pre-bronchodilator FEV1 percent change from baseline, median: 3.64%
[16]
  Pre-bronchodilator FEV1, mean: 2.29 L
  Pre-bronchodilator FEV1, median: 1.93 L
  Pre-bronchodilator FEV1 change from baseline, Mean: 0.21 L
  Pre-bronchodilator FEV1 change from baseline, median: 0.12 L
  Pre-bronchodilator FEV1 percent change from baseline, mean: 10.71%
  Pre-bronchodilator FEV1 percent change from baseline, median: 4.52%
[17]
  Pre-bronchodilator FEV1, mean: 2.24 L
  Pre-bronchodilator FEV1, median: 1.93 L
  Pre-bronchodilator FEV1 change from baseline, LS Mean: 0.02 L
  Pre-bronchodilator FEV1 change from baseline, LS Mean Diff vs. placebo: 0.06 L
  Pre-bronchodilator FEV1 change from baseline, Mean: 0.13 L
  Pre-bronchodilator FEV1 change from baseline, median: 0.09 L
[18]
  Pre-bronchodilator FEV1, mean: 2.29 L
  Pre-bronchodilator FEV1, median: 1.93 L
  Pre-bronchodilator FEV1 change from baseline, Mean: 0.21 L
  Pre-bronchodilator FEV1 change from baseline, median: 0.12 L
  Pre-bronchodilator FEV1 percent change from baseline, mean: 10.71%
  Pre-bronchodilator FEV1 percent change from baseline, median: 4.52%
[19]
  Change from baseline in pre-bronchodilator FEV1, Mean: -0.02 L
  Change from baseline in pre-bronchodilator FEV1, Median: -0.04 L
  Pre-bronchodilator FEV1, Mean: 2.01 L
  Pre-bronchodilator FEV1, Median: 1.88 L
Week 12 (EOT), MMRM, mITT
  Change from baseline in pre-bronchodilator FEV1, LS Mean: -0.01 L
  Change from baseline in pre-bronchodilator FEV1, LS Mean diff vs. placebo: 0.00 L
[20]
  Pre-bronchodilator FEV1, mean: 2.01 L
  Pre-bronchodilator FEV1, median: 1.88 L
  Pre-bronchodilator FEV1 change from baseline, Mean: -0.02 L
